Experimental data taken from patent US10954306B2 (priority 2015, dated 2021).
Where no end group is shown, it is not given here.

Assays:
[1] = system: antibody (polyclonal anti-T14); assay: ELISA motif determination with linear peptide variants; type: binding, rabbit; conditions: 100 nM peptide, FIGS. 5-10
Procedure: The standard curves and the samples were run in triplicate. For the detection of T14, Pep4, T15 and amyloid, 8 nanomolar concentrations of each were used for the ELISA. On the other hand, for the motif determination experiment, only one concentration of each of the peptide variants was used of 100 nM. For the detection of T14 on rat brain samples, different dilutions of the protein were used. […] The standard curve for determination of T14 peptide in brain tissue and the brain tissue samples were diluted in PBS buffer. The standard curves ranged from 8 to 100 nM of T14. Briefly, 96-well immunoplates (NUNC) were coated with 100 μl/well of sample or standard T14, covered with parafilm and incubated overnight at 4° C. The following day the sample was removed by flicking the plate over a sink with running water, and 200 μl of the blocking solution containing 2% Bovine Serum Albumin (BSA) in Tris-Buffered Saline and Tween 20 (TBS-T) was added and incubated for 4 h at room temperature. Blocking solution was then removed and 100 μl of antibody, diluted in blocking solution to 1 μg/ml, was added and incubated overnight at 4° C. The primary antibody was removed the next day and wells were washed 3 times with 200 μl of TBS-T. After, 100 μl of secondary antibody diluted in blocking solution to […] was added and incubated for 2 h at room temperature; the plate was covered with parafilm during all incubations. After 2 h, the plate was washed 4 times with TBS-T. The addition of 3,3,5,5-tetramethylbenzidine started the colour reaction.
The inventors investigate the immunospecificity of the antibody of the invention by carrying out binding experiments with a series of different linear peptides.

α7 nicotinic-receptor = α7 nicotinic-receptor (Homo sapiens, UniProt P36544); conditions: cited from earlier work
rat brain slices = conditions: cited from earlier work
[2] = system: compensatory AChE release; conditions: cited from earlier work
[3] = T14 aggregation by WB and ELISA; type: physicochemical; conditions: 200 μM, neutralised PBS, 0-4 hours at 25° C.
Procedure: Exogenous T14 stock solution (20 mM) solution was created by resuspension in distilled water. Subsequently, stock solution was diluted to a working stock solution (400 μM) with PBS (pH 10.5). Aggregation was initiated by neutralising the working stock solution by adding PBS (pH 5) to create a final concentration of 200 μM, which was incubated for 0, 1, 2, 3, 4 hours at 25° C. Moreover, T14 monomer control was created by diluting the working stock with PBS (pH 10.5) to 200 μM and incubating at 25° C. for 4 hours. A further no peptide control was created by mixing together pH 5 and pH 10.5 PBS and incubating at 25° C. for 4 hours. WB (A) and ELISA (B) were then conducted on the above T14 aggregation samples and quantified;

Sequence of α7 nicotinic-receptor (P36544 23-502): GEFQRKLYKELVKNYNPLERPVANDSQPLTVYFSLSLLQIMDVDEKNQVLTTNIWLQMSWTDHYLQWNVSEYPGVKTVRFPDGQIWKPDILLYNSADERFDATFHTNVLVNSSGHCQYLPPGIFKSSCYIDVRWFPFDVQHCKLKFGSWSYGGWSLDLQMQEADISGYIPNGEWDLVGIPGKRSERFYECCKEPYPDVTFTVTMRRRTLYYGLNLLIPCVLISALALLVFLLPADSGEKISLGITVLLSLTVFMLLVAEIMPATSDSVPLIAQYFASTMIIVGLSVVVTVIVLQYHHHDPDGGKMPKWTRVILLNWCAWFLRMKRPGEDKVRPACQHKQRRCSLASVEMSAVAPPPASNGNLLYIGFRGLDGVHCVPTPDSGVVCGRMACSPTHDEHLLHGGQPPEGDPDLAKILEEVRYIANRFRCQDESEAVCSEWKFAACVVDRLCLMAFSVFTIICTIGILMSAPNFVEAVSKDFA

HRWSSYMVHWK [Peptide 1107]
recognition of the peptide by the antibody (ELISA) [1]: strongly binds

NBP14 (AEFHRWSSYMVHWK; not fully specified)
protection of cells from linear T14, T30 and β-amyloid toxicity (α7 nicotinic-receptor): protect cells
effect on Ca2+ concentrations (rat brain slices; given alone): no significant effect
effect on Ca2+ concentrations in presence of T30 (rat brain slices; with T30): blocks the effects of T30
compensatory AChE release induced by the toxicity of linear T14 and T30 [2]: blocks

FHRWSSYMVHWK [Peptide 1206]
recognition of the peptide by the antibody (ELISA) [1]: strongly binds

AEFHRWSSYMVHWK [Peptide T14]
recognition of the peptide by the antibody (ELISA) [1]: strongly binds
T14 aggregation [3]: grows exponentially
T14 monomer pool [3]: remains unchanged

EFHRWSSYMVHWK [Peptide 1305]
recognition of the peptide by the antibody (ELISA) [1]: strongly binds
